The text below walks through data of patent publication US20060029674A1, “Stable amorphous Cefdinir” (priority 2004, published 2006).

Series [1] is described as follows: Glass transition temperature (Tg) by thermally stimulated current spectroscopy. The series is classed as physicochemical. On the procedure:
The glass transition temperature (Tg) determined by thermally stimulated current spectroscopy was 67° C. This value of 67° C. is considerably higher than ambient temperature, and as a rule of thumb high Tg values are desirable for room temperature stability.
The glass transition temperature (Tg) determined by thermally stimulated current spectroscopy was 102° C. […] The higher Tg observed for the cefdinir-EPO sample relative to the individual components further confirms specific interaction.
The glass transition temperature (Tg) determined by thermally stimulated current spectroscopy was 95° C.

Series [2] in a line: Physical stability of the isolated amorphous material. The series is classed as physicochemical. Particulars: isolated by evaporating a methanolic solution. The source says:
Amorphous Cefdinir was isolated by evaporating a methanolic solution of cefdinir hydrate. […] Stable amorphous Cefdinir with Eudragit EPO was made and isolated by evaporating a methanolic solution. […] Amorphous cefdinir with PVP was made and isolated by evaporating a methanolic solution.

The conditions of series [3]: material taught in U.S. Pat. No. 4,559,334; cited from earlier work.

For the compound `C=CC1=C(C(=O)O)N2C(=O)C(NC(=O)C(=NO)c3csc(N)n3)[C@H]2SC1` (single isomer, unassigned) [Amorphous Cefdinir, 7-[2-(2-aminothiazol-4-yl)-2-hydroxyiminoacetamido]-3-vinyl-3-cephem-4-carboxylic acid (syn isomer)], in series [1], the “glass transition temperature (Tg)” value came out at 67 °C. The “physical stability of the amorphous material” value in series [2] was “physically stable”.

Turning to `C=CC1=C(C(=O)O)N2C(=O)[C@@H](NC(=O)/C(=N\O)c3csc(N)n3)[C@H]2SC1` [crystalline-like amorphous material], in series [3], the “stability of prior-art amorphous material” value was “unstable”.
